From patent US20240180836A1, “Cationic Lipid Compound and Composition for Delivery of Nucleic Acids and Use Thereof” (Shenzhen Rhegen Biotechnology Co., Ltd., priority 2022, published 2024)

Test: In vivo metabolic rates of cationic lipids (cationic lipid content in liver by HPLC-CAD)
Conditions: 5 ug EPO-mRNA-lipid nanoparticles, tail vein injection, female Balb/c mice, 1 h to 48 h after injection, compared with DLin-MC3-DMA
Description: 5 ug EPO-mRNA-lipid nanoparticles were injected via tail vein injection in 6-8 week old female Balb/c mice, prepared as in Example 13. After injection, the mice were executed at different time points (1 h, 3 h, 6 h, 24 h, 48 h after injection). The livers were taken and crushed, and the lipids were extracted from them with chloroform in three times, and the extracts were finally combined. After spin distillation to remove chloroform, methanol was added to dissolve the sample, and the cationic lipid content therein was analyzed by HPLC-CAD (Thermo Vanquish), with an Acclaim™ C18 column as the analytical column, a 0.5% TEAA aqueous solution as mobile phase A and a 0.5% TEAA methanol solution as mobile phase B. The sample was eluted according to the gradient in Table 2 below.

CCCCCCCCCSC(=O)CCCCCCCN(CCO)CCCCCCCC(=O)SC(CCCCCCCC)CCCCCCCC [Compound 9]
In vivo metabolism rate of cationic lipid (FIG. 3): metabolized in vivo faster than DLin-MC3-DMA
